This is an account of results in patent publication US20250197373A1, “SMALL MOLECULE COMPOUND OR SALT THEREOF OR SOLVATE OF THEM, GUANINE NUCLEOTIDE-BINDING PROTEIN G(Q) SUBUNIT ALPHA (GNAQ) INHIBITOR CONTAINING THE SAME AND METHOD FOR TREATING AND/OR PREVENTING CANCER” (INDUSTRIAL TECHNOLOGY RESEARCH INSTITUTE, priority 2023, published 2025).

Structures are written as SMILES.

The experiment concerns MCF-7 cells. In words: Inhibition of growth of mammary gland cancer cells MCF-7 (PrestoBlue). The format is cell-based. The note with it: Homo sapiens, MCF7, 168 h, 7 days culture, 2% fetal bovine serum, read-out: Inhibitory activity (evaluated by IC50). The procedure:
Human mammary gland cancer cells, MCF-7 cells and MCF-7 GNAQ (T96S) cells (MCF-7 cells expressing GNAQ (T96S) after GNAQ gene deletion) were cultured in MEM medium.
1×10^3 of the cells mentioned above were seeded in a 96-well plate and cultured overnight (at least 16 hours) in a carbon dioxide incubator.
After overnight incubation, the supernatant was removed. Next, after 200 μL of cell culture medium (containing 2% fetal bovine serum) containing different concentrations of test compound was added to each well of the 96-well plate, the 96-well plate was placed in a 5% carbon dioxide incubator at 37° C. for 7 days further culture. After that, an additional 30 μL of diluted PrestoBlue™ Cell Viability Reagent (Catalog Number: A13261; Thermo Fisher Scientific) (4 μL stock solution and 26 μL culture medium) was added to each well of the 96-well plate and the reaction was continued for further about 1 hour.
Finally, the fluorescence value at the wavelength of 535/615 nm of each well was read with a plate enzyme immunoassay analyzer, and the inhibitory rate of the compound on mammary gland cancer cells were calculated using the following formula.
Moreover, the half maximal inhibitory concentration (IC50) of the compound on the growth of mammary gland cancer cells was calculated with the inhibitory rate of the compound on mammary gland cancer cells at each concentration through the online half maximal inhibitory concentration (IC50) calculation software, IC50 Calculator, provided by AAT Bioquest company on its website (https://www.aatbio.com/tools/ic50-calculator).
Finally, the inhibition of the compound on the growth of mammary gland cancer cells was evaluated by the calculated half maximal inhibitory concentration (IC50) of the compound on the growth of mammary gland cancer cells.
The inhibition of the compound on the growth of breast cancer cells was evaluated by the half maximal inhibitory concentration (IC50) of the compound (one of Compound 1 to Compound 15 prepared above) on the growth of mammary gland cancer cells through the human mammary gland cancer cell line MCF-7 and the human mammary gland cancer cell line MCF-7 GNAQ (T96S) expressing the mutated gene.

What is called IC50 is the concentration at which inhibition is half-maximal. `O=C(Nc1cccc(-c2cc(-c3cccc(C(F)(F)F)c3)ncn2)c1)Nc1cc(Cl)nc(Cl)c1` [Compound 14]: the half-inhibitory concentration (IC50) is less than 310 nM.

As to `O=C(Nc1cccc(-c2ccnc(-c3cccc(C(F)(F)F)c3)n2)c1)Nc1cc(Cl)nc(Cl)c1` [Compound 2], the half-inhibitory concentration (IC50) was in the range of 310 to 2500 nM.

Take `O=C(Nc1ccc(-c2nc(-c3ccccc3)ncc2Cl)cc1)Nc1cc(Cl)nc(Cl)c1` [Compound 15]: the IC50 was less than 310 nM.

Take `O=C(Nc1cccc(-c2cccc(-c3ccncc3)n2)c1)Nc1cc(Cl)nc(Cl)c1` [Compound 13]: the IC50 was 310 to 2500 nM.

For `O=C(Nc1ccc(-c2ccnc(-c3ccncc3)n2)cc1)Nc1ccc(Cl)c(C(F)(F)F)c1` [Compound 6], the IC50 lay in the range of 310 to 2500 nM.

Turning to `O=C(Nc1ccc(-c2cccc(-c3ccncc3)n2)cc1)Nc1ccc(Cl)c(C(F)(F)F)c1` [Compound 12], the IC50 was 310 to 2500 nM.

For `O=C(Nc1cccc(-c2ccnc(-c3ccc(F)c(F)c3)n2)c1)Nc1cc(Cl)nc(Cl)c1` [Compound 4], the IC50 is 310 to 2500 nM.

Consider `FC(F)(F)c1cccc(-c2cccc(-c3ccc(NC(=S)Nc4cc(Cl)nc(Cl)c4)cc3)n2)c1` [Compound 10], for which the IC50 fell in the range of 310 to 2500 nM.

`O=C(Nc1ccc(-c2ccnc(-c3cccc(C(F)(F)F)c3)n2)cc1)Nc1ccc(Cl)c(C(F)(F)F)c1` [Compound 8]: the IC50 lay within 310 to 2500 nM.

In the case of `N#Cc1cccc(-c2cccc(-c3ccc(NC(=S)Nc4cc(Cl)nc(Cl)c4)cc3)n2)c1` [Compound 11], the IC50 fell in the range of 310 to 2500 nM.

For the compound `O=C(Nc1ccc(-c2cccc(-c3cccc(C(F)(F)F)c3)n2)cc1)Nc1cc(Cl)nc(Cl)c1` [Compound 9], the IC50 lay within 310 to 2500 nM.

As to `N#Cc1cccc(-c2nccc(-c3cccc(NC(=O)Nc4cc(Cl)nc(Cl)c4)c3)n2)c1` [Compound 3], the IC50 lay within 310 to 2500 nM.

Take `O=C(Nc1cccc(-c2ccnc(-c3cccc(C(F)(F)F)c3)n2)c1)c1cc(Cl)nc(Cl)c1` [Compound 5]: the IC50 is 310 to 2500 nM.

Turning to `O=C(Nc1cccc(-c2ccnc(-c3ccnc(Cl)c3)n2)c1)Nc1cc(Cl)nc(Cl)c1` [Compound 1], the IC50 was 310 to 2500 nM.

Take `O=C(Nc1ccc(-c2ccnc(-c3cccc(C(F)(F)F)c3)n2)cc1)Nc1cc(Cl)nc(Cl)c1` [Compound 7]: the IC50 fell in the range of 310 to 2500 nM.
